Source: US9403873B2, “Peptides targeting receptor activator of nuclear factor-κB (RANK) and their applications” (UNIVERSITE DE NANTES, priority 2011, dated 2016)
Ends that are not written are not given here.

Tests used:
human CD14+ monocytes = format: cell-based
Description: (§1) Human peripheral blood mononuclear cells (PBMCs) were isolated by centrifugation over Ficoll gradient (Sigma, Saint Quentin Fallavier, France). CD14^+ cells were magnetically labeled with CD14 Microbeads and positively selected by MACS technology (Miltenyi Biotec, Paris, France) as described previously (Duplomb et al. 2008). CD11b^+ monocytes were purified from murine bone marrow cells obtained by flushing the bone marrow from femora and tibiae of 4-week-old C57BL6 male mice, using MACS microbeads (Baud'huin et al. 2010). The purity of cell preparations was around 96%, as controlled by flow cytometry. Generation of osteoclasts from human CD14^+ and murine CD11b^+ monocytes was performed as described previously (Duplomb et al. 2008, Baud′huin et al. 2010). Briefly, purified cells were cultured in α-minimum essential medium (α-MEM, Gibco/Invitrogen, USA) with 10% fetal calf serum and 25 ng/mL human/murine macrophage colony-stimulating factor (M-CSF, R&D Systems, Abindgton, UK). After 3 days of culture, cell medium was replaced by fresh medium containing M-CSF and recombinant human RANKL (100 ng/mL, R&D system), supplemented with or without a polypeptide of interest (0.5-100 μM) or 50 ng/mL human OPG (R&D Systems) used as a reference inhibitor. Soluble cytokines, receptor and polypeptides were renewed every 3 days until multinucleated osteoclasts had formed. After 12 days of culture for CD14^+ cells and 15 days for CD11b^+ cells, osteoclasts were visualized by TRAP staining (Sigma, France) and cells formed with three or more nuclei were manually counted and analyzed statistically.

[1] = Stability of the polypeptide under NMR conditions in phosphate buffer; format: physicochemical; conditions: without protein, 2 weeks
Protocol: NMR experiments were run at 500.13 MHz for ^1H on a Bruker AVANCE 500 spectrometer with a Linux PC workstation, using standard 5 mm or Shigemi 3 mm tubes with susceptibility matched to solvent ^2H2O/Water sample tubes. The spectra of the polypeptide Pep8 at 0.1, 0.2, 0.4 or 1 mM sample concentrations were recorded in 50 mM sodium phosphate buffer at pH 7.4, prepared in 95% H2O and 5% ^2H2O. Two-dimensional NMR spectra were recorded in the phase-sensitive mode using the States—TPPI method (States et al. 1982). All experiments were carried out using the WATERGATE pulse sequence for water suppression (Piotto et al. 1992) or using the excitation sculpting water suppression (Hwang et al. 1995) to eliminate solvent signal in H2O/^2H2O 95:5 solution. The two-dimensional COSY, TOCSY and NOESY spectra were recorded at 280 K. TOCSY spectra were recorded using a MLEV-17 spin-lock sequence (Bax et al. 1985) with a mixing time (τm) of 35 and 70 ms, respectively. 2D NOESY experiments were recorded at a mixing time (τm) of 100, 200 or 500 ms. The heteronuclear spectra ^1H-^13C HSQC were recorded at 280 K in the same conditions. […] Transferred nuclear Overhauser effect (TRNOESY) spectra of Pep8 with RANK receptor-Fc protein were recorded using a mixing time (Tm) of 100, 200 or 500 ms.

murine CD11b+ cells = format: cell-based, mouse
Description: as §1

[2] = tested on: mesenchymal stem cells (MSCs); test: Mineralization of mesenchymal stem cells (Alizarin red staining); format: cell-based; conditions: 100 μM

With NVLKLCSGE [Pep8, NVLKLCSGE] the IC50 (human CD14+ monocytes) was 40 µM, the “inhibitory activity on osteoclastogenesis” value (human CD14+ monocytes; 50 μM polypeptide, screen of 8 new polypeptides) was “inhibitory activity similar to that of the RANKL-targeting mimetics OP3-4 and WP9QY” and the “number of TRAP-positive multinucleated cells, % of the number formed without the polypeptide” value (human CD14+ monocytes; 100 μM, human cultures) was 39%. The “osteoclast development with polypeptide alone” value (human CD14+ monocytes; absence of RANKL) was “did not modulate osteoclast development”, the “stability under experimental NMR conditions” value [1] was “remained stable” and the IC50 (murine CD11b+ cells) was 30 µM. The “IC50 of osteoclast formation” value (murine CD11b+ cells) was 29 µg/mL, the “number of TRAP-positive multinucleated cells, % of the number formed without the polypeptide” value (murine CD11b+ cells; 100 μM, murine cultures) was 28% and the “effect on mineralization of MSCs” value [2] was “nor did the polypeptide at 100 μM exhibit any effect”.
